Test results taken from patent US20150045423A1, “COMPOUNDS FOR THE PREVENTION AND/OR TREATMENT OF OSTEOARTHROSIS” (Universitaetsklinikum Muenster, priority 2010, published 2015).

System: hyaluronan export from fibroblasts
Assay: Assay for hyaluronan transport/export inhibitors in fibroblast cell culture (hyaluronan in culture medium by ELISA)
Format: cell-based
Settings: 48 h, 2 days at 37° C., hyaluronan concentration in culture medium, read-out: Inhibition of hyaluronan export IC50
Description: Assay for Hyaluronan Transport/Export Inhibitors in Fibroblast Cell Culture
Trypsinized fibroblasts were suspended in Dulbeccos medium at 10^5 cells/ml and 100 μl aliquots were transferred to a 96 well microtiter plate. The first row received 200 μl of the suspension and 20 μl of the inhibitors of the invention dissolved in phosphate buffered saline at concentrations of 4 mM. A serial dilution of the inhibitors was established by transfer of 100 μl aliquots from the first row to the following rows. All experiments were performed in duplicates. […] The cells were incubated for 2 days at 37° C. and aliquots (5 and 20 μl) of the culture medium were used for measurement of the hyaluronan concentration in the cell culture medium by an ELISA [125]. Briefly, the wells of a 96 well Covalink-NH-microtiter plate (NUNC) were coated with 100 μl of a mixture of […] of hyaluronan (HEALON®), 9.2 μg/ml of N-Hydroxysuccinimide-3-sulfonic acid and 615 μl/ml of 1-ethyl-3-(3-dimethylaminopropyl)-carbodiimide for 2 hours at room temperature and overnight at 4° C. The wells were washed three times with 2 M NaCl, 41 mM MgSO4, 0.05% Tween-20 in 50 mM phosphate buffered saline pH 7.2 (buffer A) and once with 2 M NaCl, 41 mM MgSO4, in phosphate buffered saline pH 7.2. Additional binding sites were blocked by incubation with 300 μl of 0.5% bovine serum albumin in phosphate buffered saline for 30 min at 37° C. Calibration of the assay was performed with standard concentrations of hyaluronan ranging from 15 ng/ml to 6000 ng/ml in equal volumes of culture medium as used for measurement of the cellular supernatants. A solution (50 μl) of the biotinylated hyaluronan binding fragment of aggrecan (Calbiochem) in 1.5 M NaCl, 0.3 M guanidinium hydrochloride, 0.08% bovine serum albumin 0.02% NaN3 25 mM phosphate buffer pH 7.0 was preincubated with 50 μl of the standard hyaluronan solutions or cellular supernatants for 1 hour at 37° C. […] The adsorption was read at 490 nm. The concentrations in the samples were calculated from a logarithmic regression curve of the hyaluronan standard solutions.

Question: How did the IC50 turn out when `COc1cc(O)c(CC=C(C)C)c(O)c1C(=O)/C=C/c1ccc(O)cc1` [Xanthohumol] was run?
Answer: 8 µM

Question: For `COc1cc(O)c(CC=C(C)C)c2c1C(=O)CC(c1ccc(O)cc1)O2` (stereo not drawn) [Isoxanthohumol], which IC50 is on record?
Answer: 15 µM

Question: With `CC(C)=CCc1c(O)cc(O)c2c1OC(c1ccc(O)cc1)CC2=O` (stereo not drawn) [8-Prenylnaringenin] as the compound, how does the IC50 read?
Answer: 15 µM
